Source: PMC4723341, “Ribonuclease H/DNA Polymerase HIV-1 Reverse Transcriptase Dual Inhibitor: Mechanistic Studies on the Allosteric Mode of Action of Isatin-Based Compound RMNC6” (PLoS ONE, 2016)
Where “and” joins values, the source holds several entries; their conditions need not be identical. Equal entries are not always repeated. Where two headings read alike, the source gives them in different places.

Assays:
[1] = target: T1, HIV-1 RT-associated RNase H activity, W229A RT (Human immunodeficiency virus type 1 group M subtype B, UniProt P04585, W816A); assay: RNase H activity assay, W229A RT; type: biochemical, HIV-1 group M subtype B; conditions: for Fold of increase of RNase H IC50 with respect to wt RT: W229A RT
T1 construct: The 1:1 ration between the p66/p51 subunits was also verified; made in house; host or cells: E. coli M15
Method: (§1) HIV RT-associated RNase H activity was measured as described in 100 μL reaction volume containing 50 mM Tris-HCl buffer pH 7.8, 6 mM MgCl2, 1 mM dithiothreitol (DTT), 80 mM KCl, 0.25 μM hybrid RNA/DNA 5'-GAUCUGAGCCUGGGAGCU-Fluorescin-3' (HPLC, dry, QC: Mass Check) (available from Metabion) 5'-Dabcyl-AGCTCCCAGGCTCAGATC-3'(HPLC, dry, QC: Mass Check), increasing concentrations of inhibitors, whose dilution were made in water, and different amount of enzymes according to a linear range of dose-response curve: 20 ng of WT RT; 60 ng K103N RT; 37.5 ng V106A RT; 75 ng V108A RT; 5 ng Y181C RT; 50 ng Y188A RT; 30 ng Y188L RT; 100 ng E224A RT; 37.5 ng P225A RT; 20 ng P226A RT; 18 ng F227A RT; 30 ng L228A RT; 30 ng W229A RT; 10 ng M230A RT; 30 ng G231A RT; 62.5 ng N474A RT; 1 μg Y501A RT; 100 ng A502F RT; 37.5 ng A508V RT; 38 ng HIV-1 group O RT. The reaction mixture was incubated for 1 h at 37°C, stopped by addition of EDTA and products were measured with a multilabel counter plate reader Victor 3 (Perkin Elmer model 1420–051) equipped with filters for 490/528 nm (excitation/emission wavelength)

[2] = target: T2, HIV-1 RT-associated RNase H activity, M230A RT (Human immunodeficiency virus type 1 group M subtype B, UniProt P04585, M817A); assay: RNase H activity assay, M230A RT; type: biochemical, HIV-1 group M subtype B
T2 construct: The 1:1 ration between the p66/p51 subunits was also verified; made in house; host or cells: E. coli M15
Method: as §1

[3] = system: HIV-1 RT-associated RNase H activity, M230A RT; assay: RNase H activity assay, M230A RT; type: biochemical, HIV-1 group M subtype B; conditions: M230A RT
Method: as §1

[4] = target: T3, HIV-1 RT-associated RNase H activity, V108A RT (Human immunodeficiency virus type 1 group M subtype B, UniProt P04585, V695A); assay: RNase H activity assay, V108A RT; type: biochemical, HIV-1 group M subtype B
T3 construct: The 1:1 ration between the p66/p51 subunits was also verified; made in house; host or cells: E. coli M15
Method: as §1

[5] = target: T4, HIV-1 RT-associated RNase H activity, Y181C RT (Human immunodeficiency virus type 1 group M subtype B, UniProt P04585, Y768C); assay: RNase H activity assay, Y181C RT; type: biochemical, HIV-1 group M subtype B
T4 construct: The 1:1 ration between the p66/p51 subunits was also verified; made in house; host or cells: E. coli M15
Method: as §1

[6] = target: T5, HIV-1 RT-associated RNase H activity, K103N RT (Human immunodeficiency virus type 1 group M subtype B, UniProt P04585, K690N); assay: RNase H activity assay, K103N RT; type: biochemical, HIV-1 group M subtype B
T5 construct: The 1:1 ration between the p66/p51 subunits was also verified; made in house; host or cells: E. coli M15
Method: as §1

[7] = target: T6, HIV-1 RT-associated RNase H activity, F227A RT (Human immunodeficiency virus type 1 group M subtype B, UniProt P04585, F814A); assay: RNase H activity assay, F227A RT; type: biochemical, HIV-1 group M subtype B
T6 construct: The 1:1 ration between the p66/p51 subunits was also verified; made in house; host or cells: E. coli M15
Method: as §1

[8] = system: HIV-1 RT-associated RNase H activity, F227A RT; assay: RNase H activity assay, F227A RT; type: biochemical, HIV-1 group M subtype B; conditions: F227A RT
Method: as §1

[9] = target: T7, HIV-1 RT-associated RNase H activity, P226A RT (Human immunodeficiency virus type 1 group M subtype B, UniProt P04585, P813A); assay: RNase H activity assay, P226A RT; type: biochemical, HIV-1 group M subtype B
T7 construct: The 1:1 ration between the p66/p51 subunits was also verified; made in house; host or cells: E. coli M15
Method: as §1

[10] = system: HIV-1 RT-associated RNase H activity, P226A RT; assay: RNase H activity assay, P226A RT; type: biochemical, HIV-1 group M subtype B; conditions: P226A RT
Method: as §1

[11] = target: HIV-1 RT-associated RNase H activity, HIV-1 group O RT (Human immunodeficiency virus type 1 group O, UniProt Q79666); assay: RNase H activity assay, HIV-1 group O RT; type: biochemical; conditions: for IC50: Group O RT; for Fold increase in RNase H IC50 in comparison with wild-type HIV-1 group M subtype B RT: HIV-1 group O RT
Description: Recombinant HIV-1 group O RT was expressed and purified as previously described. It was obtained as a heterodimer composed of subunits of 66 and 51 kDa, with a polyhistidine tag at the C-terminus of p66. For this purpose, the RT p66 subunit encoded within a p66RTB expression vector was co-expressed with the HIV-1 protease in E. coli XL-1 Blue, and the obtained heterodimers were then purified by ionic exchange followed by chromatography on Ni2+-nitriloacetic acid agarose. The enzyme was quantified by active site titration before biochemical studies.
as §1, with “5'-[…]-Fluorescin-3'” for “5'-GAUCUGAGCCUGGGAGCU-Fluorescin-3'”, “5'-Dabcyl-[…]-3'(HPLC,” for “5'-Dabcyl-AGCTCCCAGGCTCAGATC-3'(HPLC,”

[12] = target: T8, HIV-1 RT-associated RNase H activity, V106A RT (Human immunodeficiency virus type 1 group M subtype B, UniProt P04585, V693A); assay: RNase H activity assay, V106A RT; type: biochemical, HIV-1 group M subtype B
T8 construct: The 1:1 ration between the p66/p51 subunits was also verified; made in house; host or cells: E. coli M15
Method: as §1

SMILES	IC50 [1]	Fold of increase of RNase H IC50 with respect to wt RT [1]	IC50 [2]	Fold of increase of RNase H IC50 with respect to wt RT [3]	IC50 [4]	IC50 ([5]; Y181C RT, read-out: IC50 RNase H)	IC50 ([6]; K103N RT, read-out: IC50 RNase H)	IC50 [7]	Fold of increase of RNase H IC50 with respect to wt RT [8]	IC50 [9]	Fold of increase of RNase H IC50 with respect to wt RT [10]	IC50 [11]	Fold increase in RNase H IC50 in comparison with wild-type HIV-1 group M subtype B RT [11]	IC50 [12]	IC50 [5]	IC50 [6]
CC(C)c1ccc(O)c(=O)c(O)c1 [BTP, β-thujaplicinol, reference compound]	150 ± 80 nM	0.8	140 ± 40 nM	0.7	180 ± 40 nM	230 ± 50 nM	220 ± 80 nM	220 ± 40 nM	1.2	290 ± 80 nM	1.5	910 ± 10 nM	5 to 6.5	160 ± 30 nM	–	–
N#Cc1ccc(-c2csc(NN=C3C(=O)Nc4ccccc43)n2)cc1 [RMNC6, (Z)-4-(2-(2-(2-oxoindolin-3-ylidene)hydrazinyl)thiazol-4-yl)benzonitrile]	1900 ± 500 nM	1.5	500 ± 100 nM	0.4	13100 ± 2500 nM	–	–	700 ± 100 nM	0.5	1900 ± 100 nM	1.5	8500 ± 2600 nM	6.5 and 5 to 6.5	5300 ± 600 nM	2100 ± 600 nM	2300 ± 100 nM
